{"source": "paper PMC5349447", "about": "“Applying a high-throughput fluorescence polarization assay for the discovery of chemical probes blocking La:RNA interactions in vitro and in cells” (PLoS ONE, 2017)", "key": {"[1]": {"system": "SCC 22B cells", "test": "Cell toxicity, CyQUANT cell number, SCC 22B", "format": "cell-based, human", "conditions": "for effect on SCC 22B cell numbers: 48 h, 12.5-150 μM", "procedure": "(§1) Normal fibroblast MRC5 and human embryonic kidney HEK293 cells were purchased from ATCC. Head and neck squamous cell carcinoma cell lines UM-SCC 22A (SCC 22A) and UM-SCC 22B (SCC 22B) were described elsewhere. MRC5 cells were cultured in EMEM plus 10% FBS; SCC 22A, SCC 22B, and HEK293 cells were cultured in advanced DMEM (Gibco) containing 2 mM L-glutamine (Life Technology) and 10% FBS. All cell lines were tested for mycoplasma contamination by applying a MycoSensor PCR Assay kit according to the manufacturer’s instructions (Agilent Technologies).\n(§2) To test for cell toxicity the compounds were dissolved in 100% DMSO to a concentration of 100 mM. Subsequently, compounds were diluted in media to 10 mM (10% DMSO), 1 mM (1% DMSO) and tested at 150, 125, 100, 75, 50, 25 μM in SCC 22B and MRC5 cells. To reach this concentration compounds (stock 1 mM, 1% DMSO) were diluted in the cell culture dish (96-well format, 100 μl final volume) as follows: 150 μM = 6.7 fold (final DMSO: 0.15%); 125 μM = 8.0 fold (final DMSO: 0.125%); 100 μM = 10 fold (final DMSO: 0.1%); 75 μM = 13.3 fold (final DMSO: 0.075%); 50 μM = 20 fold (final DMSO: 0.05%); and 25 μM = 40 fold (final DMSO: 0.025%). As a control the highest DMSO concentration of 0.15% was used. Cells were cultured in appropriate media (see above) for 48h. Subsequently, cells were washed twice with 1x PBS and quantified after staining with fluorescence dye (CyQUANT®, Life Technologies). For this experiments 3x10^4 of MRC5 and 1x10^4 SCC 22B cells were plate the day before the experiment."}, "[2]": {"system": "MRC5 cells", "test": "Cell toxicity, CyQUANT cell number, MRC5", "format": "cell-based, human", "conditions": "48 h, up to 150 μM", "procedure": "as §1, §2"}, "[3]": {"system": "T1, La-WT:fD1-RNA complex", "T1 construct": "His; made in house; host or cells: E. coli BL21", "test": "EMSA, compound competition, La-WT:fD1", "format": "binding, human", "conditions": "La-WT 60 nM, fD1 50 nM", "procedure": "12% native TBE polyacrylamide gels were prepared in a Mini-PROTEAN Tetra Handcast System (BioRad). The gel was pre-run for 30 min at 140 V in 1x TBE buffer (45 mM Tris/HCl pH 8.5, 45 mM boric acid, 1 mM EDTA). To prepare the RNA-mix, fluorescence labeled RNA oligoribonucleotides (oligos) were diluted in fluorescence polarization buffer (20 mM Tris/HCl (pH 7.4), 150 mM NaCl, 3.0 mM MgCl2, 0.5 mM EDTA, 0.05% (v/v) IGEPAL), mixed for 10 min at 80°C, and then immediately placed on ice for at least 5 min. All RNA oligos were used at a final concentration of 50 nM. Recombinant La protein was diluted in D-buffer (20 mM Tris/ HCl (pH 7.4), 150mM NaCl, 3mM MgCl2, 0.5mM EDTA, 5% glycerol) and placed on ice until use.\nLa titration was performed at final concentrations of 20, 40, 60, 100, 200, 300, 400, 500, 600 nM La. Three different La concentrations were used for compound studies: 60 nM for fD1 RNA, 200 nM for fPolyU RNA, and 150 nM for TOPf RNA studies. Two μl of diluted compound (diluted in 100% DMSO) or 2 μl 100% DMSO (control reaction) was combined with 8 μl La-mix in a 96-well plate. 10 μl RNA-mix was added, mixed for 2 min, and incubated for 10 min at RT in the dark. Final concentrations in the reaction: 18 mM Tris/HCl (pH 7.4), 135 mM NaCl, 2.7 mM MgCl2, 0.45 mM EDTA, 0.025% (v/v) IGEPAL, 2% glycerol, 10% DMSO). Samples were loaded onto the pre-run gel without any loading buffer. Gels were run at 160 V for 40 min in the dark. The gels were carefully transferred to a clear plastic wrap and scanned using a Typhoon FLA900 imager. The La-RNA complex (La-RNP) formation was quantified using the ImageQuant TL software.\nNext we used our established EMSA to test whether compound C2 and C6 can compete against the three RNA oligos: fD1, fPolyU, and TOPf. All of the EMSA reactions were loaded in the following order: lane 1 contains the RNA oligo alone; lane 2 contains the RNA oligo plus La protein at concentration that shifts 50% of the RNA oligo (positive control); lanes 3–9 contain the RNA oligo, La protein and decreasing concentrations of the compound; and lane 10 contains the RNA oligo and the highest compound concentration (negative control)."}, "[4]": {"system": "SCC 22A cells", "set-up": "method as in PMID 27105491", "conditions": "used as treatment concentration, read-out: cisplatin IC50; cited from earlier work"}, "[5]": {"system": "SCC 22B cells", "test": "Cisplatin sensitization, CyQUANT, SCC 22B", "format": "cell-based, human", "conditions": "SCC 22B", "procedure": "To test whether compound C2.01 sensitizes cells for cisplatin, cells were treated with 0.2% DMSO alone, cisplatin at 4, 8, 16, 32 or 64 μM concentration alone or in combination with 50 μM compound C2.01. The half maximal inhibitory concentration (IC50) of cisplatin was determined by treating SCC 22B cells with increasing cisplatin (Selleckchem) concentrations or vehicle (DMSO) for 48 h (96-well format) as described recently. For this experiments 1x10^4 SCC 22B cells were plated the day before the experiment. DMSO or C2.01 was added to a final concentration of DMSO (0.05%) and C2.01 (50 μM). Six hours later the different cisplatin concentrations were added. The highest DMSO concentration of 0.25% was used in the control for cisplatin and C2.01 double treatment. Subsequently, cells were washed twice with 1x PBS and quantified after staining with fluorescence dye (CyQUANT®, Life Technologies) 48 after the initial C2.01 treatment."}, "[6]": {"target": "T2, La-RRM1+2 (human, UniProt P05455 111-348)", "T2 sequence": "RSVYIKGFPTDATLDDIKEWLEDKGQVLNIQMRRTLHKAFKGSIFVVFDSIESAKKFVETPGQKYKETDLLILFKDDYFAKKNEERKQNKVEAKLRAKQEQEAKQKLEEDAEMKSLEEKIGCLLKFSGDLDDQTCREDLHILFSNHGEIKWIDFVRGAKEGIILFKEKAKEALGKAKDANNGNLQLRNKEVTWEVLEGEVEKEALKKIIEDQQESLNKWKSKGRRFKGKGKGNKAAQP", "test": "EMSA; EMSA: about 20 mM Tris-HCl pH 7.4, 150 mM NaCl, 3 mM MgCl2, 0.5 mM EDTA, IGEPAL, glycerol, 50 nM RNA, RT 10 min (with compounds: 18 mM Tris, 135 mM NaCl, 2.7 mM MgCl2, 0.45 mM EDTA, 0.025% IGEPAL, 2% glycerol, 10% DMSO); FP: 20 mM Tris-HCl pH 7.5, 3 mM MgCl2, 0.5 mM EDTA, 150 mM NaCl, 0.05% IGEPAL, 100 ug/ml BGG, RT 15 min", "conditions": "protein: recombinant, tags: His"}, "[7]": {"target": "T3, La-WT (La autoantigen, LARP3) (human, UniProt P05455 1-408)", "T3 sequence": "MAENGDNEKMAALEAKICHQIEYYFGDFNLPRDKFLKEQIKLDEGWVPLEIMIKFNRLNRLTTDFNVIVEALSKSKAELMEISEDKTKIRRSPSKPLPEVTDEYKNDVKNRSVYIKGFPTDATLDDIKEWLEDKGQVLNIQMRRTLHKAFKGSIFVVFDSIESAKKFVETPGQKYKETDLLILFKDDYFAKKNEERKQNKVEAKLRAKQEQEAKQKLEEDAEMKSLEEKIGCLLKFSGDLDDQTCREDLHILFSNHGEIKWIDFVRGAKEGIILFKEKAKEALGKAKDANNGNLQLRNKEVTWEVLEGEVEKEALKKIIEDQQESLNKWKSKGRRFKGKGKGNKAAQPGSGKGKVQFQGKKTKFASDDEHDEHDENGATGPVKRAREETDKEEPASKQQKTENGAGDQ", "test": "EMSA; EMSA: about 20 mM Tris-HCl pH 7.4, 150 mM NaCl, 3 mM MgCl2, 0.5 mM EDTA, IGEPAL, glycerol, 50 nM RNA, RT 10 min (with compounds: 18 mM Tris, 135 mM NaCl, 2.7 mM MgCl2, 0.45 mM EDTA, 0.025% IGEPAL, 2% glycerol, 10% DMSO); FP: 20 mM Tris-HCl pH 7.5, 3 mM MgCl2, 0.5 mM EDTA, 150 mM NaCl, 0.05% IGEPAL, 100 ug/ml BGG, RT 15 min", "conditions": "protein: recombinant, tags: His"}, "[8]": {"target": "T3, La-WT (La autoantigen, LARP3)", "test": "competition; EMSA vs TOPf; EMSA: about 20 mM Tris-HCl pH 7.4, 150 mM NaCl, 3 mM MgCl2, 0.5 mM EDTA, IGEPAL, glycerol, 50 nM RNA, RT 10 min (with compounds: 18 mM Tris, 135 mM NaCl, 2.7 mM MgCl2, 0.45 mM EDTA, 0.025% IGEPAL, 2% glycerol, 10% DMSO); FP: 20 mM Tris-HCl pH 7.5, 3 mM MgCl2, 0.5 mM EDTA, 150 mM NaCl, 0.05% IGEPAL, 100 ug/ml BGG, RT 15 min", "conditions": "protein: recombinant; tags: His; label: none"}}, "data": [{"molecule": "O=C(O)c1ccccc1C(=O)c1ccc2ccccc2c1O", "note": "[C2.02, 2-(1-hydroxy-2-naphthoyl)benzoic acid]", "values": [{"measurement": "effect on SCC 22B cell numbers", "setting": "[1]", "result": "no effect"}, {"measurement": "toxic effect on MRC5 cells (normal fibroblasts)", "setting": "[2]", "result": "toxic effect"}, {"measurement": "competition for La:fD1 interaction (EMSA), in words", "setting": "[3]", "result": "lower concentration"}]}, {"molecule": "N.N.[Cl][Pt][Cl]", "note": "[cisplatin]", "values": [{"measurement": "IC50", "setting": "[4]", "result": 12000, "unit": "nM"}, {"measurement": "IC50", "setting": "[5]; pretreatment with 50 μM C2.01, 48 hours", "result": 18000, "unit": "nM"}, {"measurement": "IC50", "setting": "[5]; vehicle (DMSO) pretreatment, 48 hours", "result": 32000, "unit": "nM"}]}, {"molecule": "CC(C)COC(=O)c1ccc2c(c1)C1C=CCC1C(C(=O)O)N2", "note": "(centres unmarked) [C6.01, 8-(isobutoxycarbonyl)-3a,4,5,9b-tetrahydro-3H-cyclopenta[c]quinoline-4-carboxylic acid]", "values": [{"measurement": "effect on SCC 22B cell numbers", "setting": "[1]", "result": "reduced SCC 22B cell numbers even at low concentrations"}, {"measurement": "selectivity: cancer cell numbers compared to effect on normal MRC5 cells", "setting": "[1]; SCC 22B versus MRC5, 48 h", "result": "preferentially reduced cancer cell numbers"}, {"measurement": "toxic effect on MRC5 cells (normal fibroblasts)", "setting": "[2]", "result": "toxic effect"}, {"measurement": "competition for La:fD1 interaction (EMSA), in words", "setting": "[3]", "result": "slightly lower concentrations than C6.00"}]}, {"molecule": "CCCCOC(=O)c1ccc2c(c1)C1C=CCC1C(C(=O)O)N2", "note": "(centres unmarked) [C6.02, 8-(butoxycarbonyl)-3a,4,5,9b-tetrahydro-3H-cyclopenta[c]quinoline-4-carboxylic acid]", "values": [{"measurement": "effect on SCC 22B cell numbers", "setting": "[1]", "result": "reduced SCC 22B cell numbers even at low concentrations"}, {"measurement": "toxic effect on MRC5 cells (normal fibroblasts)", "setting": "[2]", "result": "toxic effect"}, {"measurement": "competition for La:fD1 interaction (EMSA), in words", "setting": "[3]", "result": "slightly lower concentrations than C6.00"}]}, {"molecule": "UGCUGUUUU (ssRNA)", "note": "[fPolyU]", "values": [{"measurement": "binding result", "setting": "[6]; no structure predicted", "result": "no binding"}, {"measurement": "Kd", "setting": "[7]; no structure predicted", "result": "138 ± 12.6", "unit": "nM"}]}, {"molecule": "GCUGCCCAGGAAGAGCCCCAGCCAUGGAACACCAGCUCCUGUGCUGC (structured_RNA)", "note": "[fD1]", "values": [{"measurement": "Kd", "setting": "[6]; hairpin (mfold prediction)", "result": "81.7 ± 12.6", "unit": "nM"}, {"measurement": "Kd", "setting": "[7]; hairpin (mfold prediction)", "result": "85 ± 7.5", "unit": "nM"}]}, {"molecule": "GGCCCUUUUCCCACCCCCUAGCGCCGCUGGGCCU (ssRNA)", "note": "[TOP-mu2]", "values": [{"measurement": "binding result", "setting": "[8]", "result": "binds"}]}, {"molecule": "CCCUUUUCCCACCCCCUAGCGCCGCUGGGCCU (structured_RNA)", "note": "[TOPf]", "values": [{"measurement": "Kd", "setting": "[7]; mfold predicted structure", "result": "147 ± 35.1", "unit": "nM"}]}, {"molecule": "CCCUUUUCCCACCCCCUAGCGCCGCUGGGCCU (structured_RNA, 5' m7G cap)", "note": "[capTOPf]", "values": [{"measurement": "Kd", "setting": "[7]", "result": "183 ± 15.3", "unit": "nM"}]}]}
